Read-outs that look alike come from different tables or passages of the source.
Target: T1, sirtuin protein (Homo sapiens, UniProt Q96EB6)
T1 sequence (Q96EB6 2-747 limits assumed): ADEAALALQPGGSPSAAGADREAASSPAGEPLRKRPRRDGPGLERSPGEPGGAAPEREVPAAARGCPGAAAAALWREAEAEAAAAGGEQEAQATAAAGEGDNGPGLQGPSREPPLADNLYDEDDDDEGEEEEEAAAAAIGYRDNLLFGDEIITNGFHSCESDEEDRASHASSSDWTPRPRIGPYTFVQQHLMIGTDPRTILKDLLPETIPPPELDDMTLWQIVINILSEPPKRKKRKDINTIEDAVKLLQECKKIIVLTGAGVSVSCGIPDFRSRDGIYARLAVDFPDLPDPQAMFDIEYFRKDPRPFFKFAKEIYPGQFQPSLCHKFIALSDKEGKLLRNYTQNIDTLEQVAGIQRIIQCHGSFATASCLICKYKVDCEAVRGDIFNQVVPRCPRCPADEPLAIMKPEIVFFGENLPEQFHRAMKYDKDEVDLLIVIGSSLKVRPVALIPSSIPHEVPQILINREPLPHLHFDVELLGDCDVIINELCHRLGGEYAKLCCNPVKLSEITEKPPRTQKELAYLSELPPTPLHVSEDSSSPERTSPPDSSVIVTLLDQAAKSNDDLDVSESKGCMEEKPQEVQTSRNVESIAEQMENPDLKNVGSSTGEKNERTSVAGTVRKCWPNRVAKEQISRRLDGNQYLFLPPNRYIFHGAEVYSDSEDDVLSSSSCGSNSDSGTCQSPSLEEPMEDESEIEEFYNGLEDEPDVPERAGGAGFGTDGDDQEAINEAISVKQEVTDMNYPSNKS
Assay: MS assay (IC50 MS ASSAY / ED50 MS / FOLD ACTIVATION MS)
Assay type: biochemical
Set-up: scale not given here

[1] = MS assay, class symbols A′, A, B, D, NA, legend not given
[2] = Table 4, class symbols A′, A, B, D, NA, legend not given
[3] = class symbols (A′, A, B, D, NA), no legend given

CN(C)c1cccc(C(=O)Nc2cccc(-c3nc4cnccc4s3)c2)c1 [Compound 402]
A′: ED50 MS ASSAY [1] | ED50 MS ASSAY (Table 4) | ED50 MS ASSAY [2]

CN(C)c1ccc(C(=O)Nc2cccc(-c3nc4cnccc4s3)c2)cc1 [Compound 403]
A′: ED50 MS ASSAY [1] | ED50 MS ASSAY (Table 4) | ED50 MS ASSAY [2]

COc1cc(OC)cc(C(=O)Nc2ccccc2-c2nc3cnccc3o2)c1 [Compound 404]
A′: ED50 MS ASSAY [1] | ED50 MS ASSAY (Table 4) | ED50 MS ASSAY [2]

COc1cc(C(=O)Nc2ccccc2-c2nc3cnccc3o2)cc(OC)c1OC [Compound 405]
A′: ED50 MS ASSAY [1] | ED50 MS ASSAY (Table 4) | ED50 MS ASSAY [2]

CN(C)c1cccc(C(=O)Nc2ccccc2-c2nc3cnccc3o2)c1 [Compound 406]
A′: ED50 MS ASSAY [1] | ED50 MS ASSAY (Table 4) | ED50 MS ASSAY [2]

CN(C)c1ccc(C(=O)Nc2ccccc2-c2nc3cnccc3o2)cc1 [Compound 407]
A′: ED50 MS ASSAY [1] | ED50 MS ASSAY (Table 4) | ED50 MS ASSAY [2]

COc1ccc(C(=O)Nc2ccc(-c3nc4cnccc4o3)s2)cc1OC [Compound 423]
A′: ED50 MS ASSAY [1] | ED50 MS ASSAY (Table 4) | ED50 MS ASSAY [2]

COc1cc(C(=O)Nc2ccc(-c3nc4cnccc4o3)s2)cc(OC)c1OC [Compound 426]
A′: ED50 MS ASSAY [1] | ED50 MS ASSAY (Table 4) | ED50 MS ASSAY [2]

CN(C)c1cccc(C(=O)Nc2ccc(-c3nc4cnccc4o3)s2)c1 [Compound 427]
A′: ED50 MS ASSAY [1] | ED50 MS ASSAY (Table 4) | ED50 MS ASSAY [2]

COc1ccc(C(=O)Nc2cccc(-c3nc4ccncc4o3)c2)c(OC)c1 [Compound 429]
A′: ED50 MS ASSAY [1] | ED50 MS ASSAY (Table 4) | ED50 MS ASSAY [2]

COc1ccc(C(=O)Nc2ccccc2-c2cn3cccnc3n2)cc1OC [Compound 438]
A′: ED50 MS ASSAY [1] | ED50 MS ASSAY (Table 4) | ED50 MS ASSAY [2]

COc1cc(C(=O)Nc2ccccc2-c2cn3cccnc3n2)cc(OC)c1OC [Compound 439]
A′: ED50 MS ASSAY [1] | ED50 MS ASSAY (Table 4) | ED50 MS ASSAY [2]

O=C(Nc1ccccc1-c1cn2c(CN3CCNCC3)csc2n1)c1cnc2ccccc2n1 [Compound 441]
A′: ED50 MS ASSAY [1] | ED50 MS ASSAY (Table 4) | ED50 MS ASSAY [2]

Cc1c(C(=O)Nc2ccccc2-c2cn3c(CN4CCNCC4)csc3n2)oc2ccccc12 [Compound 442]
A′: ED50 MS ASSAY [1] | ED50 MS ASSAY (Table 4) | ED50 MS ASSAY [2]

COc1ccc(C(=O)Nc2ccccc2-c2nc3ccncc3o2)c(OC)c1 [Compound 455]
A′: ED50 MS ASSAY [1] | ED50 MS ASSAY (Table 4) | ED50 MS ASSAY [2]

COc1cc(OC)cc(C(=O)Nc2ccccc2-c2nc3ccncc3o2)c1 [Compound 456]
A′: ED50 MS ASSAY [1] | ED50 MS ASSAY (Table 4) | ED50 MS ASSAY [2]

CN(C)c1cccc(C(=O)Nc2ccccc2-c2nc3ccncc3o2)c1 [Compound 458]
A′: ED50 MS ASSAY [1] | ED50 MS ASSAY (Table 4) | ED50 MS ASSAY [2]

CN(C)c1ccc(C(=O)Nc2ccccc2-c2nc3ccncc3o2)cc1 [Compound 459]
A′: ED50 MS ASSAY [1] | ED50 MS ASSAY (Table 4) | ED50 MS ASSAY (Table 4, class symbols) | ED50 MS ASSAY [2] | ED50 MS ASSAY [3]

Cc1cc(C)cc(C(=O)Nc2ccccc2-c2nc3ncccc3o2)c1 [Compound 481]
A′: ED50 MS ASSAY (Table 4, class symbols)

Cc1cc(C)cc(C(=O)Nc2ccccc2-c2nc3ncccc3o2)c1 [Compound 482]
A′: ED50 MS ASSAY | ED50 MS ASSAY (Table 4) | ED50 MS ASSAY [2] | ED50 MS ASSAY [3]

COc1cc(C(=O)Nc2ccccc2-c2nc3ccccc3[nH]2)ccc1CN1CCOCC1 [Compound 503]
A′: ED50 MS ASSAY | ED50 MS ASSAY (Table 4) | ED50 MS ASSAY (Table 4, class symbols) | ED50 MS ASSAY [2] | ED50 MS ASSAY [3]

COc1ccc(C(=O)Nc2ccc(C)cc2-c2nc3ccccc3[nH]2)cc1OC [Compound 507]
A′: ED50 MS ASSAY | ED50 MS ASSAY (Table 4) | ED50 MS ASSAY (Table 4, class symbols) | ED50 MS ASSAY [2] | ED50 MS ASSAY [3]

O=C(Nc1ccccc1-c1nc2ccccc2[nH]1)c1cnc2ccccc2n1 [Compound 508]
A′: ED50 MS ASSAY | ED50 MS ASSAY (Table 4) | ED50 MS ASSAY (Table 4, class symbols) | ED50 MS ASSAY [2] | ED50 MS ASSAY [3]

O=C(Nc1ccccc1-c1cn2c(CN3CCNCC3)csc2n1)c1c[nH]c2ccccc12 [Compound 510]
A′: ED50 MS ASSAY | ED50 MS ASSAY (Table 4) | ED50 MS ASSAY (Table 4, class symbols) | ED50 MS ASSAY [2] | ED50 MS ASSAY [3]

O=C(Nc1ccccc1-c1cn2c(CN3CCNCC3)csc2n1)c1c[nH]nc1-c1ccccc1 [Compound 512]
A′: ED50 MS ASSAY | ED50 MS ASSAY (Table 4) | ED50 MS ASSAY (Table 4, class symbols) | ED50 MS ASSAY [2] | ED50 MS ASSAY [3]

O=C(Nc1ccccc1-c1cn2cc(CN3CCNCC3)sc2n1)c1cnc2ccccc2n1 [Compound 513]
A′: ED50 MS ASSAY | ED50 MS ASSAY (Table 4) | ED50 MS ASSAY (Table 4, class symbols) | ED50 MS ASSAY [2] | ED50 MS ASSAY [3]

COc1ccc(C(=O)Nc2ccc(-c3nc4cnccc4s3)s2)c(OC)c1 [Compound 515]
A′: ED50 MS ASSAY | ED50 MS ASSAY (Table 4) | ED50 MS ASSAY (Table 4, class symbols) | ED50 MS ASSAY [2] | ED50 MS ASSAY [3]

CN(C)c1cccc(C(=O)Nc2ccc(-c3nc4cnccc4s3)s2)c1 [Compound 518]
A′: ED50 MS ASSAY | ED50 MS ASSAY (Table 4) | ED50 MS ASSAY (Table 4, class symbols) | ED50 MS ASSAY [2] | ED50 MS ASSAY [3]

CN(C)c1ccc(C(=O)Nc2ccc(-c3nc4cnccc4s3)s2)cc1 [Compound 519]
A′: ED50 MS ASSAY | ED50 MS ASSAY (Table 4) | ED50 MS ASSAY (Table 4, class symbols) | ED50 MS ASSAY [2] | ED50 MS ASSAY [3]

COc1cc(C(=O)Nc2ccc(-c3nc4cnccc4s3)s2)cc(OC)c1OC [Compound 520]
A′: ED50 MS ASSAY | ED50 MS ASSAY (Table 4) | ED50 MS ASSAY (Table 4, class symbols) | ED50 MS ASSAY [2] | ED50 MS ASSAY [3]

COc1cc(OC)cc(C(=O)Nc2ccccc2-c2nc3cccnc3[nH]2)c1 [Compound 521]
A′: ED50 MS ASSAY | ED50 MS ASSAY (Table 4) | ED50 MS ASSAY (Table 4, class symbols) | ED50 MS ASSAY [2] | ED50 MS ASSAY [3]

CN(C)c1cccc(C(=O)Nc2ccccc2-c2nc3cccnc3[nH]2)c1 [Compound 524]
A′: ED50 MS ASSAY | ED50 MS ASSAY (Table 4) | ED50 MS ASSAY (Table 4, class symbols) | ED50 MS ASSAY [2] | ED50 MS ASSAY [3]

COc1ccc(C(=O)Nc2ccccc2-c2nc3cccnc3[nH]2)cc1OC [Compound 525]
A′: ED50 MS ASSAY | ED50 MS ASSAY (Table 4) | ED50 MS ASSAY (Table 4, class symbols) | ED50 MS ASSAY [2] | ED50 MS ASSAY [3]

O=C(Nc1ccccc1-c1nc2cccnc2[nH]1)c1ccc(N2CCOCC2)cc1 [Compound 526]
A′: ED50 MS ASSAY | ED50 MS ASSAY (Table 4) | ED50 MS ASSAY (Table 4, class symbols) | ED50 MS ASSAY [2] | ED50 MS ASSAY [3]
